Literature values in US20070232669A1, “N-phenylbenzotriazolyl c-kit inhibitors” (priority 2006, published 2007).
Counter-ions that a name gives are not always drawn.

Experiments:
[1] = test system: MO7e human leukemia cells
[2] = test system: MO7e human leukemia cells; remark: listed apart in the source

In the case of `Cc1ccc(NC(=O)c2ccc(CN3CCN(C)CC3)cc2)cc1Nc1nccc(-c2cccnc2)n1` [Gleevec, imatinib mesylate], the “GM-CSF stimulated growth of MO7e human leukemia cells” value [1] is listed as “not affected” and the “Kit ligand-stimulated growth of MO7e human leukemia cells” value [2] is listed as “inhibited”.
